Assay [1] has as its system Karpas-299 cells. The experiment in a line: Karpas-299 cell proliferation assay (CellTiter-Glo). The class given is cell-based. Particulars: Homo sapiens, 72 h; Karpas-299 cell line (NPM-ALK); 3 days incubation; at least duplicate experiments; read-out: Prolif. IC50. (Cellular ATP, detected with luciferase, serves as a proxy for viable cell number.)
Assay [2] deals with T1, RON (Homo sapiens, UniProt Q04912).
T1 sequence (Q04912 913-1400): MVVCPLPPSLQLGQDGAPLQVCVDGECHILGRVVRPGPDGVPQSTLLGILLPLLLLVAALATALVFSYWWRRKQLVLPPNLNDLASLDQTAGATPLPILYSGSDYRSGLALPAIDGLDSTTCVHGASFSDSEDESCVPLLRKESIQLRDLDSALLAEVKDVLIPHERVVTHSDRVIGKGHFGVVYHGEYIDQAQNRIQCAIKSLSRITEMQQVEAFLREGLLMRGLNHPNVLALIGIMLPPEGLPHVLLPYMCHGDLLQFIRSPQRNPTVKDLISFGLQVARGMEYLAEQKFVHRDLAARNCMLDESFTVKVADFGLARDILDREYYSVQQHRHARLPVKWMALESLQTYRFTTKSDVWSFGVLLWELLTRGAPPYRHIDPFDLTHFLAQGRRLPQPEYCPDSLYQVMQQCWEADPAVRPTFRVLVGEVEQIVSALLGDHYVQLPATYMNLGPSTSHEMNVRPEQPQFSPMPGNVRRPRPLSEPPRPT
The experiment in a line: sfRON cell mechanistic assay (HeLa), phosphorylated RON ELISA. The class given is cell-based. Particulars: HeLa cells transfected with sfRON; inhibition of phosphorylated RON; four hours incubation; at least duplicate experiments; read-out: sfRON mech IC50. In short, it runs like this: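 HeLa cells transiently transfected with sfRON plasmid, then exposed 4 h at 37 °C to a 6-point compound series (typically 10 μM to 3 nM, 0.5% DMSO). Phospho-RON (pY1238/1239) in lysates measured by sandwich ELISA with luminescence. IC50 from 4-parameter fit of percent-of-DMSO-control data, at least duplicate runs.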

Regarding `COc1ccc(F)c(Cl)c1[C@@H](C)c1c[nH]c2ncc(-c3cn([C@H]4CC[C@H](C(=O)N(C)C)CC4)nc3C)cc12` [Example 23, trans-4-(4-{3-[(1S)-1-(2-chloro-3-fluoro-6-methoxyphenyl)ethyl]-1H-pyrrolo[2,3-b]pyridin-5-yl}-3-methyl-1H-pyrazol-1-yl)-N,N-dimethylcyclohexanecarboxamide], the IC50 in assay [1] is at most 50 nM; in assay [2], at most 200 nM.

With `CNC(=O)[C@H]1CC[C@H](n2nc(C)c(-c3cnc4[nH]cc([C@H](C)c5c(OC)ccc(F)c5Cl)c4c3)c2C)CC1` [Example 24, trans-4-(4-{3-[(1S)-1-(2-Chloro-3-fluoro-6-methoxyphenyl)ethyl]-1H-pyrrolo[2,3-b]pyridin-5-yl}-3,5-dimethyl-1H-pyrazol-1-yl)-N-methylcyclohexanecarboxamide], the results for the IC50 in assay [1] and in assay [2] were at most 50 nM and 200 to 1000 nM, respectively.

With `COc1ccc(F)c(Cl)c1[C@@H](C)c1c[nH]c2ncc(-c3cn([C@H]4CC[C@H](O)CC4)nc3C)cc12` [Example 28, trans-4-(4-{3-[(1S)-1-(2-Chloro-3-fluoro-6-methoxyphenyl)ethyl]-1H-pyrrolo[2,3-b]pyridin-5-yl}-3-methyl-1H-pyrazol-1-yl)cyclohexanol], the IC50 was at most 50 nM in assay [1] and at most 200 nM in assay [2].

What is called IC50 is the concentration that inhibits the measured activity by half.
